The values that follow come from patent US20140179773A1, “METHOD FOR THE TREATMENT OF HEART RELATED DISORDERS IN NAFLD PATIENTS” (INSTITUTO BIOCHIMICO ITALIANO GIOVANNI LORENZINI S.P.A., priority 2012, published 2014).

Format in all cases: in vivo
Data set [1] deals with db/db mice fed a methionine-choline deficient (MCD) diet. As to the kind of experiment: Biometric and serum biochemical parameters in db/db mice fed MCD diet. The source says: This study is aimed at assessing the efficacy of silibinin both on liver and heart injury in NAFLD and at identifying the related molecular events. In order to investigate this issue, we used db/db mice fed a methionine-choline deficient (MCD) diet, a model combining the features of the metabolic syndrome with the histological pattern of NASH [23,24]. In fact, db/db mice fed an MCD diet do partially conserve increased visceral adiposity and an insulin resistant phenotype, while developing hepatocellular injury.
(§1) All procedures fulfilled the Italian Guidelines for the Use and Care of Laboratory Animals. Six-week-old male BKS.Cg-m+/+ Leprdb/J (db/db) obese mice and six-week-old male heterozygous db/m lean control mice were purchased. Animals were maintained in a temperature and light-controlled facility and permitted ad libitum consumption of water; after two week of acclimation, db/db mice were fed a MCD diet for 4 weeks, whereas db/m mice were fed a MCD diet supplemented with methionine and choline, i.e. a standard diet (SD), for the same period. Silibinin was dissolved in saline (vehicle) and daily administered intraperitoneally at a dosage of 20 mg/kg of body weight. Mice were distributed in 3 groups: group I included 6 db/m mice fed a control diet and treated with vehicle (db/m+SD); group II comprised 6 db/db mice fed a MCD diet and treated with vehicle (db/db+MCD); group III included 6 db/db mice fed a MCD diet and treated with silibinin (db/db+MCD+silibinin). Treatment was administered for a 4-week period; at the end of it, animals were sacrificed after an overnight fast. Blood, liver and heart samples were obtained and stored at −80° C. for further analysis.
Blood glucose was measured by Accuchek (Roche Diagnostics, Milan, Italy). Serum ALT and serum insulin were determined using a multichannel autoanalyzer. Liver triglycerides content was measured using a serum/tissue triglyceride colorimetric kit (Biovision, Mountain View, Calif.). Liver and heart isoprostanes and 8-hydroxyguanosine (8-OHG) were determined by enzyme-linked immunosorbent assay (ELISA) test; reduced glutathione (GSH) was assessed by a GSH assay. Liver and heart nitrite/nitrates were measured colorimetrically using Griess reagent, following manufacturer's instructions. ELISA kit for TNF-α was used on whole myocardial tissue protein extracts, following manufacturer's instructions.

Data set [2] has the same test system. As to the kind of experiment: Liver triglycerides content (colorimetric kit) in db/db mice fed MCD diet. The following applies: 4 weeks MCD diet, silibinin 20 mg/kg i.p. daily. The text has this: All procedures fulfilled the Italian Guidelines for the Use and Care of Laboratory Animals. Six-week-old male BKS.Cg-m+/+ Leprdb/J (db/db) obese mice and six-week-old male heterozygous db/m lean control mice were purchased. Animals were maintained in a temperature and light-controlled facility and permitted ad libitum consumption of water; after two week of acclimation, db/db mice were fed a MCD diet for 4 weeks, whereas db/m mice were fed a MCD diet supplemented with methionine and choline, i.e. a standard diet (SD), for the same period. Silibinin was dissolved in saline (vehicle) and daily administered intraperitoneally at a dosage of 20 mg/kg of body weight. […]
Blood glucose was measured by Accuchek (Roche Diagnostics, Milan, Italy). Serum ALT and serum insulin were determined using a multichannel autoanalyzer. Liver triglycerides content was measured using a serum/tissue triglyceride colorimetric kit (Biovision, Mountain View, Calif.). Liver and heart isoprostanes and 8-hydroxyguanosine (8-OHG) were determined by enzyme-linked immunosorbent assay (ELISA) test; reduced glutathione (GSH) was assessed by a GSH assay. Liver and heart nitrite/nitrates were measured colorimetrically using Griess reagent, following manufacturer's instructions. […]

Data set [3] has as its system Liver mitochondrial respiratory chain (MRC) complexes I-V. Put plainly: Mitochondrial respiratory chain activity assay in liver of treated mice. The conditions noted are these: activity relative to db/m + SD group = 100, MCD diet, silibinin 20 mg/kg i.p. daily 4 weeks.
Source text: as §1, with “analysis. Mitochondrial respiratory chain (MRC) activities was determined as previously described. Briefly, liver tissues (50-70 mg) were homogenized with 15 vol of 20 mmol/L KP buffer, pH 7.4, and centrifuged at 800×g for 10 min. Respiratory chain enzymes and citrate synthase activities were measured in a DU-650 spectrophotometer. Incubation temperatures were 30° C. for complexes I, II, III, V, and citrate synthase, and 38° C. for complex IV. Enzyme activities were assessed in supernatants, expressed as nanomoles of substrate used per minute per milligram of protein and referred as a percentage of the specific activity of citrate synthase, to adjust for the hepatic content of mitochondria.” for “analysis.”

The mark [4] stands for this setting: db/db mice, 4 weeks MCD diet, silibinin 20 mg/kg i.p. daily.
The mark [5] stands for this setting: db/db mice, 4 weeks MCD diet, silibinin 20 mg/kg i.p. daily, overnight fast.

Take `COc1cc(C2Oc3cc([C@H]4Oc5cc(O)cc(O)c5C(=O)[C@@H]4O)ccc3OC2CO)ccc1O` (stereo partly shown) [silibinin, Silibinin]: in data set [1] (data not shown), the “Effect on food intake” value was “did not modify”. Also, in data set [1] (setting [4]), the HOMA-IR is 1.7 ± 0.5*, ** and the “Serum ALT” value is on record as 180.5 ± 66.5*, ** IU/L. For the same molecule, in data set [1] (setting [5]), the Blood glucose is 103.7 ± 16.8*, ** mg/dL and the Serum insulin is recorded as 6.5 ± 1.1 mU/mL. The 12-Weeks weight in data set [1] (db/db mice, after 4 weeks MCD diet and silibinin 20 mg/kg i.p. daily) is listed as 34.8 ± 1.9 g. Also, the “Decrease of ALT levels” value in data set [1] (silibinin-treated vs vehicle db/db fed MCD diet) is given as 3 fold. The Liver triglycerides in data set [2] is on record as 8.3 ± 2.4*, ** mg/g protein. For the same molecule, in data set [3], the “Liver MRC complex I” value is recorded as 90.2 ± 5.2, the “Liver MRC complex II” value is 88.4 ± 4.3, the “Liver MRC complex III” value was 94.4 ± 6.8 and the “Liver MRC complex IV” value was 96.1 ± 5.2. Besides, in data set [3], the “Liver MRC complex V” value was found to be 94.3 ± 6.2.
